Measurements taken from US9029414B2, “Triterpenoid compounds and methods of use thereof” (Biotechnology Research Corporation, priority 2008, dated 2015).

Experiments:
[1] = tested on: cortical neurons; experiment: Cortical neuron survival assay against kainate excitotoxicity (LDH); assay type: cell-based, Sprague-Dawley rats; details: kainate 5-500 μM 20 min; for protection from kainate-induced excitotoxicity (LDH release): 30 μM 24 hrs
Protocol: Cortical neurons were prepared from embryonic day 18 Sprague-Dawley rats. After the cortices had been removed from the brain, isolated cells were plated onto Poly d-Lysine (PDL) (P0899, Sigma)-coated 48 well plates (150687, NUNC) at a density of 2×10^5 cell per well using Neurobasal Medium (NB) (21103-049, Gibco) with B27 supplement (17504-044, Gibco), penicillin/streptomycin (15140, Gibco) and 1 mM L-glutamine (25030, Gibco). The cell culture was incubated at 37° C. in a humidified atmosphere of 5% CO2 in air. Medium was changed to growth medium (Neurobasal Medium with penicillin/streptomycin and B27 supplement) after 3 hours. Half medium was changed with growth medium every 2-3 days to maintain the cells until day 10 in vitro (DIV 10). Serial dilutions of samples were prepared in growth medium and DMSO was used as vehicle control. For pre-treating assay, half of the medium was removed from wells, and equal amount of diluted samples were replaced. Cells were then incubated for 2 hours at 37° C. in a humidified atmosphere of 5% CO2 in air. Culture was subsequently rinsed with Locke's solution (5 mM potassium chloride, 128 mM sodium chloride, 2.7 mM calcium chloride, 1 mM di-sodium hydrogen orthophosphate, 5 mM HEPES and 10 mM Glucose in Milli-Q water), then incubated with Locke's solution in the presence of glycine (10 μM) for 15 minutes before […] treatment. Kainate dissolved in Locke's plus glycine solution was then substituted and incubated for 20 minutes at 37° C. […] Afterwards, cells were incubated in growth medium for 18-24 hours and detected with Cytotoxicity Detection Kit (1644793, Roche). […]
FIG. 5 illustrates that DA001 protects neurons against differing concentrations of kainate. […] LDH release into the medium was then measured.
Cortical neurons were treated with DA021 or DA034 and subsequently subjected to varying concentrations of kainate. […] LDH release into the medium was then measured.

[2] = molecular target: EP2 receptor (Homo sapiens, UniProt P43116); experiment: Cellular receptor functional assay (cAMP), EP2; assay type: cell-based; parameters: expressed in transfected cells; details: for Agonist effect, cAMP measurement / Antagonist effect, cAMP measurement: EP2 receptor; for Antagonist effect, cAMP measurement: in presence of PGE2
Protocol: (§1) FIG. 13. […] A: Cellular functional assay for EP2; B: Cellular functional assay for […].
(§2) To determine whether the inhibitory effect of DA001 on the ligand binding to EP receptors results from agonist or antagonist activity, DA001 was evaluated at a single concentration (10 μM) on cellular-specific receptor functional assays. Upon ligand binding, the EP receptors are activated which leads to an increase in intracellular cyclic AMP.
(§3) DA001 was evaluated at 6 concentrations in cellular assays assessing receptor function. Upon ligand binding, the EP2 and EP4 receptor is activated which leads to an increase in intracellular cyclic AMP.
(§4) DA021 inhibits PGE2 ligand binding to EP1, EP2 and EP4 receptors. To determine whether the inhibitory effect is due to agonist or antagonist activity, DA021 was evaluated and compared at 1 concentration (30 uM) in cellular assays assessing receptor function. Upon ligand binding, the EP receptors are activated which leads to an increase in intracellular cyclic AMP.

[3] = molecular target: T1, EP1 receptor (Homo sapiens, UniProt P34995); experiment: Radioligand competition binding assay, EP1; details: EP1, target PGE2; compound at 10 μM in duplicate; read-out: % inhibition of control specific binding
T1 sequence (P34995 1-402): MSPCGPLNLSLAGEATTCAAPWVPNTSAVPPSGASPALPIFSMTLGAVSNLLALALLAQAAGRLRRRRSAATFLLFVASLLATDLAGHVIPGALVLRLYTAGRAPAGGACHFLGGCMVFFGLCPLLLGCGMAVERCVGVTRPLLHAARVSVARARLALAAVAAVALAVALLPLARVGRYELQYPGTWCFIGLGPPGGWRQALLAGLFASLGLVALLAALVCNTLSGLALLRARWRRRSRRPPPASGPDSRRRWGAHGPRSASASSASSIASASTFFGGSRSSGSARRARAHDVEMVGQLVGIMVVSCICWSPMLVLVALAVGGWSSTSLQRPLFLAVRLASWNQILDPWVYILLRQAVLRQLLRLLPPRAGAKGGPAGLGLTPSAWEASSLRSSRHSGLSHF
Protocol: (§5) DA001 was further evaluated against 32 receptor binding assays. Radioligand competition assays were conducted whereby DA001 was tested at one concentration (10 uM) in duplicate. […] It could compete with the radioligand [^3H] PGE2 binding at the EP1 and EP4 receptors, and weakly competed with the EP2 and FP receptors.
(§6) To determine the targets of DA compounds, the compound was assessed in binding assays for the family of prostanoid receptors. Both compounds were tested at a single concentration (10 μM) in duplicate. DA001 and DA021 inhibit the ligand binding of prostaglandin E2 receptors EP1, EP2 and EP4 and moderately to prostaglandin (PGF) to its receptor (FP), but not prostaglandin I (PGI2), thromoboxane A and prostaglandin D2 to their receptors.

[4] = molecular target: T2, EP4 receptor (Homo sapiens, UniProt P35408); experiment: Cellular receptor functional assay (cAMP), EP4; assay type: cell-based; parameters: expressed in transfected cells; host or cells: CHO cells; details: for Antagonist effect, cAMP measurement: in presence of PGE2
Protocol: as §1, §2
DA001 (10 μM) was subjected to ligand binding assay with the human EP1 or EP4 receptor over-expressing CHO cells. Results are expressed as a percent of control specific agonist response [100-(measured specific response/control specific agonist response)×100] obtained in the presence of DA001.
as §3, §4

[5] = molecular target: T2, EP4 receptor; experiment: Radioligand competition binding assay, EP4; details: EP4, target PGE2; compound at 10 μM in duplicate; read-out: % inhibition of control specific binding
Protocol: as §5, §6

[6] = inhibition of PGE2-induced cAMP increase, 6 concentrations, read-out: IC50, antagonist effect

T2 sequence (P35408 whole entry): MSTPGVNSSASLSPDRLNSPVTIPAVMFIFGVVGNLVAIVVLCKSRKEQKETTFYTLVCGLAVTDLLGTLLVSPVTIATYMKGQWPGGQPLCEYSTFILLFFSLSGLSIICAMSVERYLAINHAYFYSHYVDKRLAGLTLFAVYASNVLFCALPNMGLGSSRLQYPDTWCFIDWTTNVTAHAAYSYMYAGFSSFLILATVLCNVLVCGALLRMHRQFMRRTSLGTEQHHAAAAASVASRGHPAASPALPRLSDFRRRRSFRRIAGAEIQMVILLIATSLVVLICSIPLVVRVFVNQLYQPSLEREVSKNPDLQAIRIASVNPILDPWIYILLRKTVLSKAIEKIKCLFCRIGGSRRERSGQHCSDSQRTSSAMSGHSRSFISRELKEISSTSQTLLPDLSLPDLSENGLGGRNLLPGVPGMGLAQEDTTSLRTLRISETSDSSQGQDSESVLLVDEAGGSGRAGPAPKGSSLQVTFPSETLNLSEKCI
Chain of EP2 receptor (P43116 whole entry): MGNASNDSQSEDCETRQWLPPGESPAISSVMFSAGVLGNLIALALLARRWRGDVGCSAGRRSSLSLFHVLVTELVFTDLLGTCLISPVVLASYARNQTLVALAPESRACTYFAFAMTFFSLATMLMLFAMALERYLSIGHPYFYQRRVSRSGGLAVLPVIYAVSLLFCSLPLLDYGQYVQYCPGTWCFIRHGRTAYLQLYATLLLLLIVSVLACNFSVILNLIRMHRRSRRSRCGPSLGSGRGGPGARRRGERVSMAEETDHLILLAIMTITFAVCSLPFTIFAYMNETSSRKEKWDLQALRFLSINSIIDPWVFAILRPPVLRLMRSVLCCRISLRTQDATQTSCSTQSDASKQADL

| Structure (SMILES) | protection from kainate-induced excitotoxicity (LDH release) [1] | Agonist effect, cAMP measurement ([2]; 30 uM) | Antagonist effect, cAMP measurement ([2]; 30 uM) | inhibition at 10 µM [3] [%] | Antagonist effect, cAMP measurement ([4]; EP4 receptor, 30 uM) | inhibition at 10 µM [5] [%] | Agonist effect, cAMP measurement ([2]; 10 μM) [%] | Antagonist effect, cAMP measurement ([2]; 10 μM) [%] | IC50 [2, 6] [µM] | Agonist effect, cAMP measurement ([4]; EP4 receptor, 10 μM) [%] | Antagonist effect, cAMP measurement ([4]; EP4 receptor, 10 μM) [%] | IC50 [4, 6] [µM] | cell death (LDH release) vs DMSO control ([1]; 40 μM 24 hrs, at high concentrations of kainate) |
| --- | --- | --- | --- | --- | --- | --- | --- | --- | --- | --- | --- | --- | --- |
| CC(=O)OC[C@]12CC[C@@H](C3(C)CO3)C1C1CCC3[C@@]4(C)CC[C@H](O)[C@@](C)(CO)[C@@H]4CC[C@@]3(C)[C@]1(C)CC2 (stereo partly shown) [DA034] | protect neurons against differing concentrations of Kainate |  |  |  |  |  |  |  |  |  |  |  |  |
| C=C(C)[C@@H]1CC[C@]2(/C=N/O)CC[C@]3(C)C(CCC4[C@@]5(C)CCC(=O)[C@@](C)(CO)[C@@H]5CC[C@]43C)C12 (stereo partly shown) [DA021] | protect neurons against differing concentrations of Kainate | −3 | 4 | 31 | 18 | 36 |  |  |  |  |  |  |  |
| C=C(C)[C@@H]1CC[C@]2(C(=O)O)CC[C@]3(C)C(CC[C@@H]4[C@@]5(C)CC[C@H](O[C@@H]6OC[C@H](O)[C@H](O)[C@H]6O[C@@H]6O[C@@H](C)[C@H](O)[C@@H](O)[C@H]6O)[C@@](C)(CO)[C@@H]5CC[C@]43C)[C@@H]12 (stereo partly drawn) [DA001, 3-O-[α-L-rhamnopyranosyl-(1→2)-α-L-arabinopyranosyl]-3,23-dihydroxy-20(29)-lupen-28-oic acid] |  |  |  | 52 |  | 49 | −0.8 | 2.2 | 36 | −11 | 41 | 20 | significant reduction in cell death |
